Reference: BindingDB's records for doi:10.7270/Q2CV4GM1 (D3R/Abbott, 2015)
pIC50: −log10 of the molar value. “And” between values parts separate entries of the source, which are not always exact repeats. Equal entries are not always repeated.

Target: T1, Tyrosine-protein kinase SYK [355-635] (Homo sapiens, UniProt P43405)
T1 construct: 355-635
Assay: SYK assay_HTRF

pIC50 | Structure (SMILES)
8.10 | CCN(c1nc(Nc2cccc(O)c2)ncc1F)c1cccc2[nH]ncc12 [GTC000282A]
8.09 | CCN(c1nc(Nc2ccc3c(c2)[nH]c(=O)n3C)ncc1F)c1cccc2[nH]ncc12 [GTC000283A]
8.06 | NS(=O)(=O)c1cccc(Nc2ncc(F)c(N(CCCO)c3cccc4[nH]ncc34)n2)c1 [GTC000284A]
7.86 and 8.27 and 7.79 | CCN(c1nc(Nc2ccc3c(c2)S(=O)(=O)N(C)C3)ncc1F)c1cccc2[nH]ncc12 [GTC000289A]
7.99 | COCCCN(c1nc(Nc2ccc3c(cnn3C)c2)ncc1F)c1cccc2[nH]ncc12 [GTC000294A]
8.02 | OCCCN(c1nc(Nc2ccc3nn[nH]c3c2)ncc1F)c1cccc2[nH]ncc12 [GTC000295A]
7.97 and 7.81 and 7.82 | COCCCN(c1nc(Nc2ccc3cnn(C)c3c2)ncc1F)c1cccc2[nH]ncc12 [GTC000298A]
7.95 | CCN(c1nc(Nc2cccc(S(C)(=O)=O)c2)ncc1F)c1cccc2[nH]ncc12 [GTC000300A]
7.92 | COCCCN(c1nc(Nc2cccc(S(N)(=O)=O)c2)ncc1F)c1cccc2[nH]ncc12 [GTC000301A]
7.88 | CCN(c1nc(Nc2ccc3c(c2)C(C)(C)C(=O)N3)ncc1F)c1cccc2[nH]ncc12 [GTC000302A]
8.04 and 7.78 and 7.58 | CCN(c1nc(Nc2cccc(-c3cnco3)c2)ncc1F)c1cccc2[nH]ncc12 [GTC000306A]
7.79 and 7.85 | CCN(c1nc(Nc2ccc3c(c2)S(=O)(=O)N(CC)C3)ncc1F)c1cccc2[nH]ncc12 [GTC000307A]
7.82 | CS(=O)(=O)c1cccc(Nc2nccc(N(CCO)c3cccc4[nH]ncc34)n2)c1 [GTC000311A]
7.79 | CCNC(=O)c1ccc(Nc2ncc(F)c(N(CC)c3cccc4[nH]ncc34)n2)cc1 [GTC000312A]

Further lines, the compound ahead of its results:

Structure (SMILES) | pIC50
NC(=O)c1cccc(Nc2nccc(N(CCO)c3cccc4[nH]ncc34)n2)c1 [GTC000281A] | 8.14
COCCN(c1ccnc(Nc2ccc3c(c2)S(=O)(=O)NC3)n1)c1cccc2[nH]ncc12 [GTC000285A] | 8.08
Cc1ncoc1-c1cccc(Nc2nccc(N(CCCCO)c3cccc4[nH]ncc34)n2)c1 [GTC000286A] | 8.12
Cn1ncc2cc(Nc3nccc(N(CCCCO)c4cccc5[nH]ncc45)n3)ccc21 [GTC000287A] | 8.09
CS(=O)(=O)NCCCCN(c1ccnc(Nc2ccc3[nH]c(=O)[nH]c3c2)n1)c1cccc2[nH]ncc12 [GTC000288A] | 7.70 and 8.27
CCN(c1nc(Nc2ccc3[nH]c(=O)[nH]c3c2)ncc1Cl)c1cccc2[nH]ncc12 [GTC000290A] | 8.17 and 7.90
CCN(CC)CCCN(c1ccnc(Nc2ccc3c(c2)S(=O)(=O)NC3)n1)c1cccc2[nH]ncc12 [GTC000291A] | 7.94 and 8.14
O=c1[nH]c2ccc(Nc3nccc(N(CC4CCNCC4)c4cccc5[nH]ncc45)n3)cc2[nH]1 [GTC000292A] | 7.97
NCCCN(c1ccnc(Nc2ccc3[nH]c(=O)[nH]c3c2)n1)c1cccc2[nH]ncc12 [GTC000293A] | 8.03
COC(=O)CCCCN(c1ccnc(Nc2ccc3c(c2)S(=O)(=O)NC3)n1)c1cccc2[nH]ncc12 [GTC000296A] | 8.30 and 7.60 and 7.67
COC(=O)CCCN(c1ccnc(Nc2ccc3c(c2)S(=O)(=O)NC3)n1)c1cccc2[nH]ncc12 [GTC000297A] | 8.16 and 7.86 and 7.88
CCN(c1nc(Nc2ccc3cnn(CCCCO)c3c2)ncc1F)c1cccc2[nH]ncc12 [GTC000299A] | 7.86
CN(c1nc(Nc2ccc3c(cnn3C)c2)ncc1F)c1cccc2[nH]ncc12 [GTC000303A] | 7.94
O=S1(=O)NCc2ccc(Nc3nccc(N(C[C@@H](O)CO)c4cccc5[nH]ncc45)n3)cc21 [GTC000304A] | 7.87
CCN(c1nc(Nc2ccc3c(cnn3C(C)C)c2)ncc1F)c1cccc2[nH]ncc12 [GTC000305A] | 7.53 and 8.15
CS(=O)(=O)NCCCCCN(c1ccnc(Nc2ccc3[nH]c(=O)[nH]c3c2)n1)c1cccc2[nH]ncc12 [GTC000308A] | 7.75 and 7.81
NC(=O)c1cccc(Nc2nccc(N(CCCO)c3cccc4[nH]ncc34)n2)c1 [GTC000309A] | 7.75
CC(=O)NCCCCCN(c1ccnc(Nc2ccc3[nH]c(=O)[nH]c3c2)n1)c1cccc2[nH]ncc12 [GTC000310A] | 7.79
